From PubChem BioAssay AID330 (DTP/NCI, 2004)
“And” between values parts separate entries of the source, which are not always exact repeats. Equal values may be shown once. Toxic doses and inconclusive results are not listed. Rule for the calls: active = survival T/C of 150% or more; inactive = T/C below 125% in these data.

System: P388 leukemia ip, CD2F1 mice, survival T/C
Test: NCI In Vivo Anticancer Drug Screen. Data for tumor model P388 Leukemia (intraperitoneal) in CD2F1 (CDF1) mice
Conditions: endpoint: median survival time, higher = longer survival
Procedure, shortened: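 Mice carrying the transplanted tumor received test compound or vehicle. Survival was recorded in each group, and the value is the treated-group measurement divided by that of the vehicle-treated control group.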

[1] = dose: 50.0 mg/kg/injection, schedule: Q01DX005 (ip), vehicle: saline with Tween-80
[2] = dose: 100.0 mg/kg/injection, schedule: Q01DX005 (ip), vehicle: saline with Tween-80
[3] = dose: 200.0 mg/kg/injection, schedule: Q01DX005 (ip), vehicle: saline with Tween-80
[4] = dose: 50.0 mg/kg/injection, schedule: Q01DX009 (ip), vehicle: Klucel (hydroxypropylcellulose) (HPC)
[5] = dose: 100.0 mg/kg/injection, schedule: Q01DX009 (ip), vehicle: Klucel (hydroxypropylcellulose) (HPC)
[6] = dose: 200.0 mg/kg/injection, schedule: Q01DX009 (ip), vehicle: Klucel (hydroxypropylcellulose) (HPC)
[7] = dose: 60.0 mg/kg/injection, schedule: Q01DX005 (ip), vehicle: saline with Tween-80
[8] = dose: 120.0 mg/kg/injection, schedule: Q01DX005 (ip), vehicle: saline with Tween-80
[9] = dose: 240.0 mg/kg/injection, schedule: Q01DX005 (ip), vehicle: saline with Tween-80
[10] = dose: 50.0 mg/kg/injection, schedule: Q01DX005 (ip), vehicle: Klucel (hydroxypropylcellulose) (HPC)
[11] = dose: 100.0 mg/kg/injection, schedule: Q01DX005 (ip), vehicle: Klucel (hydroxypropylcellulose) (HPC)
[12] = dose: 100.0 mg/kg/injection, schedule: Q04DX003 (ip), vehicle: saline with Tween-80
[13] = dose: 200.0 mg/kg/injection, schedule: Q04DX003 (ip), vehicle: saline with Tween-80
[14] = dose: 400.0 mg/kg/injection, schedule: Q04DX003 (ip), vehicle: saline with Tween-80
[15] = dose: 6.25 mg/kg/injection, schedule: Q01DX009 (ip), vehicle: saline
[16] = dose: 12.5 mg/kg/injection, schedule: Q01DX009 (ip), vehicle: saline
[17] = dose: 25.0 mg/kg/injection, schedule: Q01DX009 (ip), vehicle: saline
[18] = dose: 50.0 mg/kg/injection, schedule: Q01DX009 (ip), vehicle: saline with Tween-80
[19] = dose: 100.0 mg/kg/injection, schedule: Q01DX009 (ip), vehicle: saline with Tween-80

Measured: T/C

O=C(O)c1cccc(-c2c3ccc(=O)cc-3oc3cc(O)ccc23)c1
inactive: dose: 60.0 mg/kg/injection, schedule: Q01DX005 (ip), vehicle: Klucel (hydroxypropylcellulose) (HPC) 104 % of control | dose: 120.0 mg/kg/injection, schedule: Q01DX005 (ip), vehicle: Klucel (hydroxypropylcellulose) (HPC) 113 % of control | dose: 240.0 mg/kg/injection, schedule: Q01DX005 (ip), vehicle: Klucel (hydroxypropylcellulose) (HPC) 110 % of control

CCN(CC)CCNc1c(OC)c(OC)cc2nccnc12
inactive: dose: 25.0 mg/kg/injection, schedule: Q01DX005 (ip), vehicle: suspension in saline 98 % of control | dose: 50.0 mg/kg/injection, schedule: Q01DX005 (ip), vehicle: suspension in saline 98 % of control | dose: 100.0 mg/kg/injection, schedule: Q01DX005 (ip), vehicle: suspension in saline 98 % of control

Cc1ccccc1N=Nc1ccc(N=Nc2cc(CN(C)C)c(O)c3ncccc23)c(C)c1
inactive: [1] 102 % of control | [2] 95 % of control | [3] 109 % of control

COC1OC(CNCCO)C2OC(C)(C)OC12 (stereo not drawn)
inactive: dose: 50.0 mg/kg/injection, schedule: Q01DX005 (ip), vehicle: saline + alcohol 100 % of control | dose: 100.0 mg/kg/injection, schedule: Q01DX005 (ip), vehicle: saline + alcohol 100 % of control | dose: 200.0 mg/kg/injection, schedule: Q01DX005 (ip), vehicle: saline + alcohol 100 % of control

CC1(C)CC2(C)OCCN2C(=S)N1 (stereo not drawn)
inactive: [4] 100 % of control | [5] 90 % of control | [6] 89 % of control

O=C1OC(=O)C2C1C1C(c3ccccc3)=C(c3ccccc3)C2C2C(=O)OC(=O)C21 (stereo not drawn)
inactive: [7] 103 % of control | [8] 111 % of control | [9] 116 % of control

CCCCS(=O)CCC(N)C(=O)O (stereo not drawn)
inactive: [7] 98 % of control | [8] 94 % of control | [9] 93 % of control

C/C=C1/CN2C3CC1C1(C(=O)OC)C(OC(C)=O)[C@]4(C[C@H]21)c1cc(OC)ccc1N(C)C34 (stereo partly drawn)
inactive: dose: 3.5 mg/kg/injection, schedule: Q01DX005 (ip), vehicle: Klucel (hydroxypropylcellulose) (HPC) 115 % of control | dose: 7.0 mg/kg/injection, schedule: Q01DX005 (ip), vehicle: Klucel (hydroxypropylcellulose) (HPC) 108 % of control | dose: 14.0 mg/kg/injection, schedule: Q01DX005 (ip), vehicle: Klucel (hydroxypropylcellulose) (HPC) 94 % of control | dose: 28.0 mg/kg/injection, schedule: Q01DX005 (ip), vehicle: Klucel (hydroxypropylcellulose) (HPC) 100 % of control

C[CH2][Sn]([CH2]C)([S]c1nc(O)cc(=O)[nH]1)[S]c1nc(O)cc(=O)[nH]1
inactive: dose: 1.56 mg/kg/injection, schedule: Q01DX005 (ip), vehicle: Klucel (hydroxypropylcellulose) (HPC) 107 % of control | dose: 3.12 mg/kg/injection, schedule: Q01DX005 (ip), vehicle: Klucel (hydroxypropylcellulose) (HPC) 113 % of control and 119 % of control | dose: 6.25 mg/kg/injection, schedule: Q01DX005 (ip), vehicle: Klucel (hydroxypropylcellulose) (HPC) 118 % of control

N#Cc1c(-c2ccc(Cl)cc2)c(-c2ccc(Cl)cc2)nn(CCCl)c1=O
inactive: dose: 100.0 mg/kg/injection, schedule: Q04DX002 (ip), vehicle: saline with Tween-80 91 % of control | dose: 200.0 mg/kg/injection, schedule: Q04DX002 (ip), vehicle: saline with Tween-80 100 % of control | dose: 400.0 mg/kg/injection, schedule: Q04DX002 (ip), vehicle: saline with Tween-80 91 % of control

CCCCOC(=O)/C=C/C(=O)N1CC(C)N(C(=O)/C=C/C(=O)OCCCC)CC1C (stereo not drawn)
inactive: [10] 105 % of control | [11] 100 % of control | dose: 200.0 mg/kg/injection, schedule: Q01DX005 (ip), vehicle: Klucel (hydroxypropylcellulose) (HPC) 100 % of control

CCCCn1c(Cl)c(/C=N\Nc2ccc([N+](=O)[O-])cc2[N+](=O)[O-])c2ccccc21
inactive: [12] 94 % of control | [13] 90 % of control | [14] 88 % of control

COc1nc(=O)n(C2CCCO2)cc1Br (stereo not drawn)
inactive: [7] 96 % of control | [8] 102 % of control | [9] 100 % of control

Cc1ccc(S(=O)(=O)/C=C2\COc3ccccc3C2=O)cc1
inactive: dose: 100.0 mg/kg/injection, schedule: Q04DX002 (ip), vehicle: saline 100 % of control | dose: 200.0 mg/kg/injection, schedule: Q04DX002 (ip), vehicle: saline 100 % of control | dose: 400.0 mg/kg/injection, schedule: Q04DX002 (ip), vehicle: saline 97 % of control

CCN(CC)CCOC(=O)C(OCCOc1ccccc1)(c1ccccc1)c1ccccc1
inactive: [10] 117 % of control | [11] 117 % of control

COC(=O)c1[nH]c(=O)c2cccnc2c1O
inactive: [15] 104 % of control | [16] 100 % of control | [17] 92 % of control | [18] 103 % of control | [19] 98 % of control

NC(=NCc1ccccc1)c1ccc(N=C(N)c2ccc(C(N)=Nc3ccc(C(N)=NCc4ccccc4)cc3)cc2)cc1
inactive: dose: 5.0 mg/kg/injection, schedule: Q01DX009 (ip), vehicle: saline sonified 118 % of control | dose: 6.6 mg/kg/injection, schedule: Q01DX009 (ip), vehicle: saline 109 % of control | dose: 10.0 mg/kg/injection, schedule: Q01DX009 (ip), vehicle: saline 122 % of control | dose: 10.0 mg/kg/injection, schedule: Q04DX003 (ip), vehicle: saline with Tween-80 104 % of control | dose: 20.0 mg/kg/injection, schedule: Q04DX003 (ip), vehicle: saline with Tween-80 95 % of control

Cc1ccccc1N=C(N)Nc1ccccc1C
inactive: dose: 2.5 mg/kg/injection, schedule: Q01DX009 (ip), vehicle: saline with Tween-80 95 % of control | dose: 5.0 mg/kg/injection, schedule: Q01DX009 (ip), vehicle: saline with Tween-80 100 % of control | dose: 10.0 mg/kg/injection, schedule: Q01DX009 (ip), vehicle: saline with Tween-80 100 % of control

COC(=O)c1cc(C2OC3OC(C)(C)OC3C2OC)nn1-c1ccc([N+](=O)[O-])cc1 (stereo not drawn)
inactive: [1] 109 % of control | [2] 100 % of control | [3] 104 % of control

CC(C)N(C(C)C)C(C(=O)OCC(O)C(O)C(O)C(O)C(=O)O)N(C(C)C)C(C)C (stereo not drawn)
inactive: [4] 113 % of control | [5] 97 % of control | [6] 111 % of control

CCCC(NC(=O)C(F)(F)F)C(=O)O (stereo not drawn)
inactive: [18] 91 % of control | [19] 93 % of control | dose: 200.0 mg/kg/injection, schedule: Q01DX009 (ip), vehicle: saline with Tween-80 106 % of control

C1=CC2C(c3cccc4ccccc34)O[C@H]2O1 (stereo partly drawn)
inactive: dose: 7.5 mg/kg/injection, schedule: Q01DX005 (ip), vehicle: Klucel (hydroxypropylcellulose) (HPC) 97 % of control | dose: 15.0 mg/kg/injection, schedule: Q01DX005 (ip), vehicle: Klucel (hydroxypropylcellulose) (HPC) 97 % of control | dose: 30.0 mg/kg/injection, schedule: Q01DX005 (ip), vehicle: Klucel (hydroxypropylcellulose) (HPC) 97 % of control

Cc1ccc(Nc2n[nH]c(=S)s2)cc1C
inactive: [12] 90 % of control | [13] 90 % of control | [14] 95 % of control

CCOC(=O)C1CCC/C1=N/Nc1ccc([N+](=O)[O-])cc1[N+](=O)[O-] (stereo not drawn)
inactive: dose: 100.0 mg/kg/injection, schedule: Q01DX001 (ip), vehicle: Klucel (hydroxypropylcellulose) (HPC) 94 % of control | dose: 200.0 mg/kg/injection, schedule: Q01DX001 (ip), vehicle: Klucel (hydroxypropylcellulose) (HPC) 93 % of control | dose: 400.0 mg/kg/injection, schedule: Q01DX001 (ip), vehicle: Klucel (hydroxypropylcellulose) (HPC) 93 % of control

CCOC(=O)/[C](=N\N=P(N(C)C)(N(C)C)N(C)C)[Hg]/[C](=N/N=P(N(C)C)(N(C)C)N(C)C)C(=O)OCC
inactive: [15] 101 % of control and 94 % of control | [16] 99 % of control and 94 % of control | [17] 103 % of control and 108 % of control | dose: 50.0 mg/kg/injection, schedule: Q01DX009 (ip), vehicle: saline 106 % of control and 110 % of control

CC(C)(C)C1CO1 (stereo not drawn)
inactive: dose: 50.0 mg/kg/injection, schedule: Q01DX005 (ip), vehicle: saline 103 % of control | dose: 100.0 mg/kg/injection, schedule: Q01DX005 (ip), vehicle: saline 108 % of control | dose: 200.0 mg/kg/injection, schedule: Q01DX005 (ip), vehicle: saline 110 % of control
